From patent US10294202B2, “Pyrrolidinones as herbicides” (FMC Corporation, priority 2013, dated 2019)

Experiments:
pigweed = assay: Test C pre-/postemergence herbicide test; format: in vivo, Amaranthus retroflexus
Method in brief: (§1)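 Greenhouse pots; formulation = non-phytotoxic solvent mix + surfactant. PRE onto seeds in loam:sand; POST at 1–4 leaves (2–18 cm) in peat moss/vermiculite medium. Read-out: visual % control vs untreated, day 13–15.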

velvetleaf = assay: Test C pre-/postemergence herbicide test; format: in vivo, Abutilon theophrasti
Method in brief: as §1

crabgrass, large = assay: Test C pre-/postemergence herbicide test; format: in vivo, Digitaria sanguinalis
Method in brief: as §1

oat, wild = assay: Test C pre-/postemergence herbicide test; format: in vivo, Avena fatua; conditions: Postemergence
Method in brief: as §1

galium = assay: Test C pre-/postemergence herbicide test; format: in vivo, Galium aparine; conditions: Preemergence
Method in brief: as §1

foxtail, giant = assay: Test C pre-/postemergence herbicide test; format: in vivo, Setaria faberii
Method in brief: as §1

wheat (winter wheat) = assay: Test C pre-/postemergence herbicide test; format: in vivo, Triticum aestivum
Method in brief: as §1

oilseed rape = assay: Test C pre-/postemergence herbicide test; format: in vivo, Brassica napus
Method in brief: as §1

barnyardgrass [1] = assay: Test A pre-/postemergence herbicide test; format: in vivo, Echinochloa crus-galli
Method in brief: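 Greenhouse pot test with pre- and postemergence application of surfactant-containing solvent formulations. Postemergence plants were 2–10 cm, one- to two-leaf stage. Response scored visually after ~10 days, 0 (no effect) to 100 (complete control).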

soybean = assay: Test C pre-/postemergence herbicide test; format: in vivo, Glycine max
Method in brief: as §1

blackgrass = assay: Test C pre-/postemergence herbicide test; format: in vivo, Alopecurus myosuroides
Method in brief: as §1

barnyardgrass [2] = assay: Test C pre-/postemergence herbicide test; format: in vivo, Echinochloa crus-galli
Method in brief: as §1

[3] = Postemergence, 31 g ai/ha, scale 0 to 100 (0 no effect, 100 complete control)
[4] = Postemergence, 62 g ai/ha, scale 0 (no effect) to 100 (complete control)
[5] = Postemergence, 125 g ai/ha, scale 0 to 100 (0 no effect, 100 complete control)
[6] = Postemergence, 250 g ai/ha, scale 0 to 100 (0 no effect, 100 complete control)
[7] = Preemergence, 31 g ai/ha, scale 0 to 100, 0 is no effect and 100 is complete control
[8] = Preemergence, 62 g ai/ha, scale 0 to 100 (0 no effect, 100 complete control)
[9] = Preemergence, 125 g ai/ha, scale 0 to 100

## O=C1NCC(c2cccc(OC(F)F)c2)C1C(=O)Nc1ccccc1F (centres unmarked) [Compound 323]
pigweed; [3]
  Plant response rating, Pigweed: 0
pigweed; [4]
  Plant response rating, Pigweed: 5
pigweed; [5]
  Plant response rating, Pigweed: 25
pigweed; [6]
  Plant response rating, Pigweed: 25
pigweed; [7]
  Pigweed plant response rating: 35
pigweed; [8]
  Pigweed plant response rating: 35
pigweed; [9]
  Plant response rating, Pigweed: 55
velvetleaf; [3]
  Plant response rating, Velvetleaf: 0
velvetleaf; [4]
  Plant response rating, Velvetleaf: 20
velvetleaf; [5]
  Plant response rating, Velvetleaf: 0
velvetleaf; [6]
  Plant response rating, Velvetleaf: 0
velvetleaf; [8]
  Velvetleaf plant response rating: 15
velvetleaf; [9]
  Plant response rating, Velvetleaf: 40
crabgrass, large; [3]
  Plant response rating, Crabgrass, Large: 0
crabgrass, large; [4]
  Plant response rating, Crabgrass, Large: 40
crabgrass, large; [5]
  Plant response rating, Crabgrass, Large: 70
crabgrass, large; [6]
  Plant response rating, Crabgrass, Large: 80
crabgrass, large; [7]
  Crabgrass, Large plant response rating: 95
crabgrass, large; [8]
  Crabgrass, Large plant response rating: 98
crabgrass, large; [9]
  Plant response rating, Crabgrass, Large: 98
crabgrass, large; Preemergence, 250 g ai/ha
  Plant response rating (scale of 0 to 100), Crabgrass, Large: 100
oat, wild; 31 g ai/ha, scale 0 to 100 (0 no effect, 100 complete control)
  Plant response rating, Oat, Wild: 0
oat, wild; 62 g ai/ha, scale 0 (no effect) to 100 (complete control)
  Plant response rating, Oat, Wild: 0
oat, wild; 125 g ai/ha, scale 0 to 100 (0 no effect, 100 complete control)
  Plant response rating, Oat, Wild: 0
oat, wild; 250 g ai/ha, scale 0 to 100 (0 no effect, 100 complete control)
  Plant response rating, Oat, Wild: 0
galium; 31 g ai/ha, scale 0 to 100, 0 is no effect and 100 is complete control
  Galium plant response rating: 0
galium; 62 g ai/ha, scale 0 to 100 (0 no effect, 100 complete control)
  Galium plant response rating: 0
galium; 125 g ai/ha, scale 0 to 100
  Plant response rating, Galium: 85
galium; 250 g ai/ha
  Plant response rating (scale of 0 to 100), Galium: 85
foxtail, giant; [3]
  Plant response rating, Foxtail, Giant: 0
foxtail, giant; [4]
  Plant response rating, Foxtail, Giant: 0
foxtail, giant; [5]
  Plant response rating, Foxtail, Giant: 35
foxtail, giant; [6]
  Plant response rating, Foxtail, Giant: 70
foxtail, giant; [7]
  Foxtail, Giant plant response rating: 90
foxtail, giant; [8]
  Foxtail, Giant plant response rating: 95
foxtail, giant; [9]
  Plant response rating, Foxtail, Giant: 95
foxtail, giant; Preemergence, 250 g ai/ha
  Plant response rating (scale of 0 to 100), Foxtail, Giant: 98
Wheat (winter wheat); [3]
  Plant response rating, Wheat: 0
Wheat (winter wheat); [4]
  Plant response rating, Wheat: 0
Wheat (winter wheat); [5]
  Plant response rating, Wheat: 0
Wheat (winter wheat); [6]
  Plant response rating, Wheat: 0
Wheat (winter wheat); [8]
  Wheat plant response rating: 30
Wheat (winter wheat); [9]
  Plant response rating, Wheat: 40
Oilseed rape; [3]
  Plant response rating, Oilseed Rape: 0
Oilseed rape; [4]
  Plant response rating, Oilseed Rape: 0
Oilseed rape; [5]
  Plant response rating, Oilseed Rape: 0
Oilseed rape; [6]
  Plant response rating, Oilseed Rape: 0
Oilseed rape; [7]
  Oilseed Rape plant response rating: 0
Oilseed rape; [8]
  Oilseed Rape plant response rating: 10
Oilseed rape; [9]
  Plant response rating, Oilseed Rape: 70
Oilseed rape; Preemergence, 250 g ai/ha
  Plant response rating (scale of 0 to 100), Oilseed Rape: 85
Barnyardgrass [1]; Postemergence, 125 g ai/ha, visual rating on 0 to 100 scale (0 no effect, 100 complete control), approx. 10 days
  Plant response rating, Barnyardgrass: 90
Barnyardgrass [1]; Postemergence, 500 g ai/ha, 0 to 100 scale (0 no effect, 100 complete control)
  Plant response rating, Barnyardgrass: 90
Barnyardgrass [1]; Preemergence, 125 g ai/ha, 0 to 100 scale where 0 is no effect and 100 is complete control
  Plant response rating, Barnyardgrass: 90
Barnyardgrass [1]; Preemergence, 500 g ai/ha, visual rating on 0 to 100 scale (0 no effect, 100 complete control)
  Barnyardgrass plant response rating: 90
soybean; [3]
  Plant response rating, Soybean: 0
soybean; [4]
  Plant response rating, Soybean: 0
soybean; [5]
  Plant response rating, Soybean: 0
soybean; [6]
  Plant response rating, Soybean: 0
soybean; [8]
  Soybean plant response rating: 0
soybean; [9]
  Plant response rating, Soybean: 0
blackgrass; [3]
  Plant response rating, Blackgrass: 0
blackgrass; [4]
  Plant response rating, Blackgrass: 0
blackgrass; [5]
  Plant response rating, Blackgrass: 0
blackgrass; [6]
  Plant response rating, Blackgrass: 15
blackgrass; [7]
  Blackgrass plant response rating: 0
blackgrass; [8]
  Blackgrass plant response rating: 0
blackgrass; [9]
  Plant response rating, Blackgrass: 45
blackgrass; Preemergence, 250 g ai/ha
  Plant response rating (scale of 0 to 100), Blackgrass: 85
Barnyardgrass [2]; [3]
  Plant response rating, Barnyardgrass: 0
Barnyardgrass [2]; [4]
  Plant response rating, Barnyardgrass: 10
Barnyardgrass [2]; [5]
  Plant response rating, Barnyardgrass: 35
Barnyardgrass [2]; [6]
  Plant response rating, Barnyardgrass: 70
Barnyardgrass [2]; [7]
  Barnyardgrass plant response rating: 80
Barnyardgrass [2]; [8]
  Barnyardgrass plant response rating: 85
Barnyardgrass [2]; Preemergence, 125 g ai/ha, scale 0 to 100 (0 no effect, 100 complete control)
  Plant response rating, Barnyardgrass: 98
Barnyardgrass [2]; Preemergence, 250 g ai/ha
  Plant response rating (scale of 0 to 100; 0 is no effect, 100 is complete control), Barnyardgrass: 98
